# Experimental data published in patent US7423044B2, “Pyrimidine derivatives useful in the treatment of insulin resistance and hyperglycemia” (Wyeth, priority 2002, dated 2008).
# Target: T1, PTP-1B (Homo sapiens, UniProt P18031)
# T1 sequence (P18031 1-435): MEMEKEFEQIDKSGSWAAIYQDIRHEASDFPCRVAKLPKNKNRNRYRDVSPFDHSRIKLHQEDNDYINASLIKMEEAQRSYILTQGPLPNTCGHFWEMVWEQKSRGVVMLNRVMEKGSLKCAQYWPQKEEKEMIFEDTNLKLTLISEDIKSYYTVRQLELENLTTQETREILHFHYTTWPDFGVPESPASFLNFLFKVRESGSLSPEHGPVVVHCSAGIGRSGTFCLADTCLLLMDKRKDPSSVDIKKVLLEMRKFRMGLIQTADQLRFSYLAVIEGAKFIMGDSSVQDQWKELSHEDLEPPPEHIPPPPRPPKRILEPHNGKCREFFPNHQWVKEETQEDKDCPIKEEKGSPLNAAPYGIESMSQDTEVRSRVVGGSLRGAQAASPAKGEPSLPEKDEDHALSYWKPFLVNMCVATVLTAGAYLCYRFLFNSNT
# Assay: PTPase inhibition assay (DIFMUP fluorescence kinetic assay)
# Assay type: biochemical
# Conditions: 20 μM DIFMUP, 1 nM enzyme; for Ki: apparent final potency from steady-state velocity (Vs), read-out: Kiapp; for inhibition at 40 µM: inhibitor at 40 μM, from average velocity (Va)
# Protocol: Measurement of PTPase activity: The present compounds are assayed in an enzyme activity-based assay. PTP-1B is known to dephosphorylate phospho-peptides. This assay is a fluorescence intensity based kinetic assay, taking advantage of a non-peptidyl substrate, 6,8-difluoro-4-methylumbelliferyl phosphate (DIFMUP). When excited at 358 nm, the dephosphorylated product of DIFMUP emits at 450 nm.
# The compounds of Examples 1-22 were analyzed as follows. The assay was conducted in black 384-well non-treated plates (Costar#3710). The assay buffer contained 50 mM 3,3-dimethyl glutaric acid, pH 7.0, 48 mM NaCl, 1 mM EDTA. Inhibitors were prepared as DMSO solution and diluted to desired concentrations using 50 mM HEPES, pH 7.4. PTP-1B was diluted to a 2.5 nM working stock using the assay buffer containing additional 0.001% (w/v) hydrogenated Triton X-100. DIFMUP was diluted to 40 μM using the assay buffer. 5 μl of inhibitor was first dispensed into assay plate. In cases of control reactions, […] of the assay buffer was dispensed. This was followed by 25 μl of DIFMUP working stock. The reaction was then initiated by the addition of 20 μl of PTP-1B working stock. The final DIFMUP concentration was 20 μM (˜1.6×Km). The final enzyme concentration was 1 nM and the detergent concentration was 0.0004% (w/v). Typical inhibitor concentrations were from 0.08 to 40 μM. The reaction progress was monitored continuously for 30 min.
# Calculations: For data analysis, the last five data points were used to obtain a slope corresponding to the estimated steady-state velocity (Vs), and the overall progress curves were used to obtain the average velocity (Va), by linear regression in both cases. The apparent final potency of inhibitor (Kiapp) was then calculated from Vs data, using the standard hyperbolic inhibition equation. The IC50 values were calculated from Va data using the sigmoidal inhibition equation. % Inhibition values were calculated from Va values of inhibitor at 40 μM, and the average Va value of control reactions.
SMILES,Ki,inhibition at 40 µM
"O=C(O)c1ccc(COc2cc(-c3ccccc3)nc(-c3ccc(Cl)cc3)n2)cc1 [Example 1, 4-({[2-(4-Chlorophenyl)-6-phenylpyrimidin-4-yl]oxy}methyl)benzoic acid]",1670 nM,100%
"Fc1ccc(COc2nc(-c3ccc(Cl)cc3)nc3c2CCC3)cc1 [Example 2, 2-(4-Chlorophenyl)-4-[(4-fluorobenzyl)oxy]-6,7-dihydro-5H-cyclopenta[d]pyrimidine]",–,10%
"Fc1ccc(COc2cc(-c3ccccc3)nc(-c3ccncc3)n2)cc1 [Example 3, 4-[(4-Fluorobenzyl)oxy]-6-phenyl-2-pyridin-4-ylpyrimidine]",–,11%
"Fc1ccc(COc2nc(-c3ccccc3)nc3c2CCC3)cc1 [Example 4, 4-[(4-Fluorobenzyl)oxy]-2-phenyl-6,7-dihydro-5H-cyclopenta[d]pyrimidine]",–,12%
"Fc1ccc(COc2cc(-c3ccccc3)nc(-c3ccc(Cl)cc3)n2)cc1 [Example 5, 2-(4-Chlorophenyl)-4-[(4-fluorobenzyl)oxy]-6-phenylpyrimidine]",–,11%
"O=C(O)c1ccc(COc2cc(-c3ccccc3)nc(-c3ccncc3)n2)cc1 [Example 6, 4-{[(6-Phenyl-2-pyridin-4-ylpyrimidin-4-yl)oxy]methyl}benzoic acid]",7210 nM,56%
"O=C(O)c1ccc(COc2cc(-c3ccccc3)nc(-c3ccccc3)n2)cc1 [Example 7, 4-{[(2,6-Diphenylpyrimidin-4-yl)oxy]methyl}benzoic acid]",2970 nM,99%
"CC(C)c1cc(OCc2ccc(F)cc2)nc(-c2cc(Cl)cc(Cl)c2)n1 [Example 8, 2-(3,5-Dichlorophenyl)-4-[(4-fluorobenzyl)oxy]-6-isopropylpyrimidine]",–,48%
"Fc1ccc(COc2nc(-c3cc(Cl)cc(Cl)c3)nc3c2CN(Cc2ccccc2)CC3)cc1 [Example 9, 6-Benzyl-2-(3,5-dichlorophenyl)-4-[(4-fluorobenzyl)oxy]-5,6,7,8-tetrahydropyrido[4,3-d]pyrimidine]",–,55%
"CC(C)c1cc(OCc2ccc(F)cc2)nc(-c2cccc([N+](=O)[O-])c2)n1 [Example 10, 4-[(4-Fluorobenzyl)oxy]-6-isopropyl-2-(3-nitrophenyl)pyrimidine]",–,56%
"CC(C)c1cc(OCc2ccc(C#N)cc2)nc(-c2cc(Cl)cc(Cl)c2)n1 [Example 11, 4-({[2-(3,5-Dichlorophenyl)-6-isopropylpyrimidin-4-yl]oxy}methyl)benzonitrile]",–,34%
"N#Cc1ccc(COc2nc(-c3cc(Cl)cc(Cl)c3)nc3c2CN(Cc2ccccc2)CC3)cc1 [Example 12, 4-({[6-Benzyl-2-(3,5-dichlorophenyl)-5,6,7,8-tetrahydropyrido[4,3-d]pyrimidin-4-yl]oxy}methyl)benzonitrile]",–,54%
"CC(C)c1cc(OCc2ccc(C#N)cc2)nc(-c2cccc([N+](=O)[O-])c2)n1 [Example 13, 4-({[6-isopropyl-2-(3-nitrophenyl)pyrimidin-4-yl]oxy}methyl)benzonitrile]",–,55%
"N#Cc1ccc(COc2nc(-c3cccc([N+](=O)[O-])c3)nc3c2CN(Cc2ccccc2)CC3)cc1 [Example 14, 4-({[6-Benzyl-2-(3-nitrophenyl)-5,6,7,8-tetrahydropyrido[4,3-d]pyrimidin-4-yl]oxy}methyl)benzonitrile]",–,64%
"CC(C)c1cc(OCc2ccc(C(F)(F)F)cc2)nc(-c2cc(Cl)cc(Cl)c2)n1 [Example 15, 2-(3,5-Dichlorophenyl)-4-isopropyl-6-{[4-(trifluoromethyl)benzyl]oxy} pyrimidine]",–,57%
"FC(F)(F)c1ccc(COc2nc(-c3cc(Cl)cc(Cl)c3)nc3c2CN(Cc2ccccc2)CC3)cc1 [Example 16, 6-Benzyl-2-(3,5-dichlorophenyl)-4-{[4-(trifluoromethyl)benzyl]oxy}-5,6,7,8-tetrahydropyrido[4,3-d]pyrimidine]",–,52%
"CC(C)c1cc(OCc2ccc(C(F)(F)F)cc2)nc(-c2cccc([N+](=O)[O-])c2)n1 [Example 17, 4-Isopropyl-2-(3-nitrophenyl)-6-{[4-(trifluoromethyl)benzyl]oxy} pyrimidine]",–,49%
"O=[N+]([O-])c1cccc(-c2nc3c(c(OCc4ccc(C(F)(F)F)cc4)n2)CN(Cc2ccccc2)CC3)c1 [Example 18, 6-Benzyl-2-(3-nitrophenyl)-4-{[4-(trifluoromethyl)benzyl]oxy}-5,6,7,8-tetrahydropyrido[4,3-d]pyrimidine]",–,51%
"CC(C)c1cc(OCc2ccc(C(=O)O)cc2)nc(-c2cc(Cl)cc(Cl)c2)n1 [Example 19, 4-({[2-(3,5-Dichlorophenyl)-6-isopropylpyrimidin-4-yl]oxy}methyl)benzoic acid]",–,101%
"O=C(O)c1ccc(COc2nc(-c3cc(Cl)cc(Cl)c3)nc3c2CN(Cc2ccccc2)CC3)cc1 [Example 20, 4-({[6-Benzyl-2-(3,5-dichlorophenyl)-5,6,7,8-tetrahydropyrido[4,3-d]pyrimidin-4-yl]oxy}methyl)benzoic acid]",–,100%
"CC(C)c1cc(OCc2ccc(C(=O)O)cc2)nc(-c2cccc([N+](=O)[O-])c2)n1 [Example 21, 4-({[6-Isopropyl-2-(3-nitrophenyl)pyrimidin-4-yl]oxy}methyl)benzoic acid]",–,101%
"O=C(O)c1ccc(COc2nc(-c3cccc([N+](=O)[O-])c3)nc3c2CN(Cc2ccccc2)CC3)cc1 [Example 22, 4-({[6-Benzyl-2-(3-nitrophenyl)-5,6,7,8-tetrahydropyrido[4,3-d]pyrimidin-4-yl]oxy}methyl)benzoic acid]",–,93%
